Data on 6 molecules can be found in ChEMBL document CHEMBL3046113, “Evaluation of fungicides and sterilants for potential application in the management of Fusarium wilt of banana” (Crop Prot, 2007).

Molecules are shown by their SMILES. Calls of active or inactive are those of the source. The calls are words filed in the database; no cut-off is given here.

The subject of experiment [1] is Fusarium odoratissimum. Briefly: Growth inhibition of Fusarium oxysporum f. sp. cubense race 4 isolate CAV 031 at 100 ug/ml after 7 days. In kind it is functional, organism-based.
In experiment [2] the test system is Fusarium odoratissimum. Briefly: Growth inhibition of Fusarium oxysporum f. sp. cubense race 4 isolate CAV 031 at 10 ug/ml after 7 days. In kind it is functional, organism-based.
For experiment [3], the system named is Fusarium odoratissimum. Briefly: Growth inhibition of Fusarium oxysporum f. sp. cubense race 4 isolate CAV 031 at 1 ug/ml after 7 days. Type of experiment: functional, organism-based.
Experiment [4] has as its system Fusarium odoratissimum. The experiment can be described thus: Growth inhibition of Fusarium oxysporum f. sp. cubense race 4 isolate CAV 031 at 50 ug/ml after 7 days. In kind it is functional, organism-based.
Experiment [5] has as its system Fusarium odoratissimum. Briefly: Antifungal activity against Fusarium oxysporum f. sp. cubense race 4 at 10 times recommended dose incubated with 10^2 spore/ml for 5 min measured after 4 days. Type of experiment: functional, organism-based.
Experiment [6] deals with Fusarium odoratissimum. Briefly: Antifungal activity against Fusarium oxysporum f. sp. cubense race 4 incubated with 10^2 spore/ml for 5 to 30 min measured after 4 days. In kind it is functional, organism-based.
In experiment [7] the test system is Fusarium odoratissimum. Briefly: Antifungal activity against Fusarium oxysporum f. sp. cubense race 4 at 0.01 times recommended dose incubated with 10^2 spore/ml for 5 min measured after 4 days. In kind it is functional, organism-based.
For experiment [8], the system named is Fusarium odoratissimum. Briefly: Antifungal activity against Fusarium oxysporum f. sp. cubense race 4 incubated with 10^2 spore/ml for 5 min measured after 4 days. Type of experiment: functional, organism-based.
Experiment [9] deals with Fusarium odoratissimum. The experiment can be described thus: Growth inhibition of Fusarium oxysporum f. sp. cubense race 4 isolate CAV 086 at 5 ug/ml after 7 days. Type of experiment: functional, organism-based.
The test system of experiment [10] is Fusarium odoratissimum. Briefly: Antifungal activity against Fusarium oxysporum f. sp. cubense race 4 infected in Cavendish banana plant assessed as reduction in disease severity at 25 ug a.i./ml applied as soil drench treatment immediately after planting measured after 7 weeks in greenhouse conditions. On the set-up: scale not given: the % may be the effect or the level left. In kind it is functional.

The test system of experiment [11] is Fusarium odoratissimum. Briefly: Antifungal activity against Fusarium oxysporum f. sp. cubense race 4 infected in Cavendish banana plant assessed as reduction in disease severity at 25 ug a.i./ml applied as root dip treatment for 10 min measured after 7 weeks in greenhouse conditions. In kind it is functional. On the set-up: scale not given: the % may be the effect or the level left.

The subject of experiment [12] is Fusarium odoratissimum. Briefly: Antifungal activity against Fusarium oxysporum f. sp. cubense race 4 infected in Cavendish banana plant assessed as reduction in disease severity at 25 ug a.i./ml applied as soil drench treatment 1 week after planting measured after 7 weeks in greenhouse conditions. Type of experiment: functional. On the set-up: scale not given: the % may be the effect or the level left.

The test system of experiment [13] is Fusarium odoratissimum. The experiment can be described thus: Growth inhibition of Fusarium oxysporum f. sp. cubense race 4 isolate CAV 086 at 10 ug/ml after 7 days. Type of experiment: functional, organism-based.
Experiment [14] deals with Fusarium odoratissimum. Briefly: Growth inhibition of Fusarium oxysporum f. sp. cubense race 4 isolate CAV 086 at 50 ug/ml after 7 days. Type of experiment: functional, organism-based.
Experiment [15] deals with Fusarium odoratissimum. The experiment can be described thus: Growth inhibition of Fusarium oxysporum f. sp. cubense race 4 isolate CAV 086 at 1 ug/ml after 7 days. In kind it is functional, organism-based.
For experiment [16], the system named is Fusarium oxysporum. The experiment can be described thus: Antifungal activity against Fusarium oxysporum infected tomato plant grown in hydroponic system applied as preventive treatment relative to control. In kind it is functional.
For experiment [17], the system named is Fusarium oxysporum. Briefly: Antifungal activity against Fusarium oxysporum infected tomato plant grown in hydroponic system applied as curative treatment relative to control. In kind it is functional.

As to `CO/C=C(/C(=O)OC)c1ccccc1Oc1cc(Oc2ccccc2C#N)ncn1`, the “growth inhibition (GI)” value in the experiment on Fusarium odoratissimum [1], with Fusarium odoratissimum [2], in the experiment on Fusarium odoratissimum [3] and with Fusarium odoratissimum [4] was “inactive” in each case.
Regarding `CO/N=C(/C(=O)OC)c1ccccc1COc1ccccc1C`, the “growth inhibition (GI)” value with Fusarium odoratissimum [1], in the experiment with Fusarium odoratissimum [2], in the experiment on Fusarium odoratissimum [3] and with Fusarium odoratissimum [4] was “inactive” each time.
In the case of `OCl`, the outcome with Fusarium odoratissimum [5] and in the experiment on Fusarium odoratissimum [6] was Active. Also, in the experiment on Fusarium odoratissimum [7], the outcome was inactive. Also, the Activity entry with Fusarium odoratissimum [8] is “Dose-dependent effect”.
In the case of `CCCCNC(=O)n1c(NC(=O)OC)nc2ccccc21` [BENOMYL], the “growth inhibition (GI)” value in the experiment with Fusarium odoratissimum [9], in the experiment with Fusarium odoratissimum [1], in the experiment on Fusarium odoratissimum [2] and with Fusarium odoratissimum [4] was “Active” throughout. Besides, the results for the Activity with Fusarium odoratissimum [10], with Fusarium odoratissimum [11] and in the experiment with Fusarium odoratissimum [12] were 22.2%, 66.7% and 72.2%, respectively.
Turning to `CCCN(CCOc1c(Cl)cc(Cl)cc1Cl)C(=O)n1ccnc1` [PROCHLORAZ], the “growth inhibition (GI)” value in the experiment with Fusarium odoratissimum [13], in the experiment with Fusarium odoratissimum [14], in the experiment on Fusarium odoratissimum [1], in the experiment on Fusarium odoratissimum [2], with Fusarium odoratissimum [15] and with Fusarium odoratissimum [3] was “Active” throughout. Moreover, the “growth inhibition (GI)” value in the experiment with Fusarium odoratissimum [4] is “Active”. Further, the Activity with Fusarium odoratissimum [10] is 38.9%; in the experiment on Fusarium odoratissimum [11], 77.8%; in the experiment with Fusarium odoratissimum [12], 50%; in the experiment on Fusarium odoratissimum [8] it was “Dose-dependent effect”; with Fusarium oxysporum [16], 69.9%; in the experiment on Fusarium oxysporum [17] it was 34.4%. In the experiment with Fusarium odoratissimum [5], the result was Active.
As for `CCCC1COC(Cn2cncn2)(c2ccc(Cl)cc2Cl)O1` (stereo not drawn) [PROPICONAZOLE], the “growth inhibition (GI)” value in the experiment with Fusarium odoratissimum [9] and with Fusarium odoratissimum [1] was “Active” each time. Further, the Activity in the experiment on Fusarium odoratissimum [10] turned out to be 44.4%; in the experiment on Fusarium odoratissimum [11], 75%; with Fusarium odoratissimum [12], 52.8%.
